Test results from patent US8158587B2, “Compound having histone deacetylase-inhibiting activity, and pharmaceutical composition comprising the compound as an active ingredient” (Kyushu Institute of Technology, priority 2006, dated 2012).

Columns and labels:
human HDAC4 = molecular target: T1, human HDAC4 (Homo sapiens, UniProt P56524); assay: HDAC-inhibiting activity, coumarin-labeled acetylated histone peptide assay; format: biochemical; details: human HDAC4 from transfected 293T cells; 37° C., 30 minutes; read-out: HDAC-inhibiting activity IC50 HDAC4
T1 construct: made in house; host or cells: 293T cells (transient transfection, anti-FLAG immunoprecipitation, FLAG peptide elution)
Protocol: In carrying out HDAC-inhibiting activity measurements, HDAC solutions were prepared in the following manner. […] The human HDAC1 expression vector used was pcDNA3-HD1 (Yang, W. M., Yao, Y. L., Sun, […]. & Seto, E. (1997) J. Biol. Chem. 272, 28001-28007), the human HDAC4 expression vector used was pcDNA3-HD4 ([…]., Nagase, […]. Biol. Chem. 274, 11713-11720), and the murine HDAC6 expression vector used was pcDNA3-mHDA2/HDAC6 ([…]. Biol. Chem. 274, 2440-2445). After 24 hours of incubation, cells were recovered, washed with PBS, suspended in lysis buffer (50 mM Tris-HCl (pH 7.5), 120 mM NaCl, 5 mM EDTA, 0.5% Nonidet P-40), and sonicated. The supernatant was collected by centrifugation and then deprived of nonspecific proteins using Protein A/G plus agarose beads (Santa Cruz Biotechnologies, Inc.). Thereafter, anti-FLAG M2 antibody (Sigma-Aldrich Inc.) was added, and the reaction was allowed to proceed at 4° C. for 2 hours. To this were added agarose beads, the reaction was allowed to proceed at 4° C. for 3 hours, and the agarose beads were washed three times with lysis buffer and then once with HD buffer (20 mM Tris-HCl (pH 8.0), 150 mM NaCl, 10% glycerol). […] HDAC-inhibiting activity evaluation in each in vitro system was made as follows. Each test compound was dissolved in DMSO, a stock solution with a concentration of 10 mM was thus prepared and this was used as an inhibitor stock solution. The assay was carried out by incubating the HDAC solution and a coumarin-labeled acetylated histone peptide solution in the presence of the test compound at 37° C. for 30 minutes (reaction volume 20 μl). To the reaction mixture was added 30 μl of trypsin, and the aminomethylcoumarin released by the enzymatic reaction was assayed using a fluorescent plate reader. In a negative control assay, no inhibitor was added to the reaction system and the same procedure was carried out.

[1] = test system: human wild type p21 promoter; assay: p21 promoter assay (luciferase) in MFLL-9 cells; format: cell-based; details: 20 hours, concentration giving 1000% luminescence relative to negative control (100%)
Protocol: As an HDAC-inhibiting activity in an […] system, the following measurement was carried out using the p21 promoter inducing activity as an index. MFLL-9 cells used in the experiment are cells stably retaining a fusion gene (Dr. B. Vogelstaein) from the human wild type p21 promoter and luciferase gene. They were cultured using phenol red-free DMEM supplemented with 10% FBS in a steam-saturated incubator at 37° C. in the presence of 5% carbon dioxide. These MFLL-9 cells were sowed onto a 96-well microplate at a cell density of 2×10^4 cells/well and, after 24 hours of cultivation in 99 μl, per well, of the medium mentioned above, each test compound solution was added, followed by 20 hours of incubation. […] In a negative control, the same procedure was carried out without adding any inhibitor to the reaction system.
Using Luciferase Assay Reagent (Promega), the intensity of the luminescence due to the product of the enzymatic reaction involving luciferase expressed within cells was measured.

[2] = test system: lung cancer cell line NCI-H522; assay: Human cancer cell line panel, proliferation (sulforhodamine B); format: cell-based; details: NCI-H522, 2 days of cultivation; read-out: 50% inhibitory concentration, proliferation
Source text: (§1) The characteristics of the human cancer cell proliferation-inhibiting activity of the compounds of the present invention were examined by the “method of evaluating the mechanisms of action of compounds using a panel of human cancer cell lines” as proposed by Yamori et al. (cf. Gan to Kagaku Ryoho (Cancer and Chemotherapy) 29 Suppl. II (2002) and Cancer Chemother. Pharmacol. 52 Suppl. I, S74-79 (2003)).
(§2) This system includes […] (7 lung cancer, 6 stomach cancer, 5 colon cancer, 5 ovarian cancer, 6 brain tumor, […], 2 kidney cancer and 2 prostate cancer cell lines as well as one melanoma line) and the method comprises measuring the in vitro drug susceptibilities of those cancer cell lines and expressing the differences in drug susceptibility among the respective cancer cell lines as a fingerprint. […] By utilizing this property, it is possible to estimate the mechanisms of action of a compound. The above method is also characterized in that an anticancer substance showing new and unique mechanisms of action different from those of the existing anticancer agents can be selected.
(§3) Cancer cells of each cell line are sowed onto a 96-well plate, a sample solution is added on the next day and, after 2 days of cultivation, the cell proliferation is measured by colorimetry using sulforhodamine B. The deviations in effective concentration for the respective cancer cell lines from the mean effective drug concentration for the 39 cancer cell lines subjected to measurement are calculated and shown in the form a fingerprint.

[3] = test system: melanoma cell line LOX-IMVI; assay: as above; format: cell-based; details: 2 days of cultivation, read-out: 50% inhibitory concentration, proliferation
Source text: as §1, §2, §3

human HDAC1 = molecular target: T2, human HDAC1 (Homo sapiens, UniProt Q13547); assay: HDAC-inhibiting activity, coumarin-labeled acetylated histone peptide assay; format: biochemical; details: human HDAC1 from transfected 293T cells; 37° C., 30 minutes
T2 construct: made in house; host or cells: 293T cells (transient transfection, anti-FLAG immunoprecipitation, FLAG peptide elution)
Protocol: (§4) In carrying out HDAC-inhibiting activity measurements, HDAC solutions were prepared in the following manner. In each 100-mm dish, there were sowed 1×10^7 293T cells and, after 24 hours, they were transfected with a vector (5 μg) expressing human HDAC1 or HDAC4 or murine HDAC6 using the LipofectAmine 2000 reagent (Invitrogen). The human HDAC1 expression vector used was pcDNA3-HD1 (Yang, W. M., Yao, Y. L., Sun, J. M., Davie, J. R. & Seto, E. (1997) J. Biol. Chem. 272, 28001-28007), the human HDAC4 expression vector used was pcDNA3-HD4 (Fischle, W., Emiliani, S., Hendzel, M. J., Nagase, T., Nomura, N., Voelter, W. & Verdin, E. (1999) J. Biol. Chem. 274, 11713-11720), and the murine HDAC6 expression vector used was pcDNA3-mHDA2/HDAC6 (Verdel, A. & Khochbin, S. (1999) J. Biol. Chem. 274, 2440-2445).
(§5) After 24 hours of incubation, cells were recovered, washed with PBS, suspended in lysis buffer (50 mM Tris-HCl (pH 7.5), 120 mM NaCl, 5 mM EDTA, 0.5% Nonidet P-40), and sonicated. The supernatant was collected by centrifugation and then deprived of nonspecific proteins using Protein A/G plus agarose beads (Santa Cruz Biotechnologies, Inc.). Thereafter, anti-FLAG M2 antibody (Sigma-Aldrich Inc.) was added, and the reaction was allowed to proceed at 4° C. for 2 hours.
(§6) To this were added agarose beads, the reaction was allowed to proceed at 4° C. for 3 hours, and the agarose beads were washed three times with lysis buffer and then once with HD buffer (20 mM Tris-HCl (pH 8.0), 150 mM NaCl, 10% glycerol). The protein bound to the agarose beads was recovered by 1 hour of incubation with FLAG peptide (40 μg) (Sigma-Aldrich Inc.) in HD buffer (200 μl) at 4° C., and the liquid recovered was used, as a reactant solution, in the HDAC-inhibiting activity measurement described below.
(§7) HDAC-inhibiting activity evaluation in each in vitro system was made as follows. Each test compound was dissolved in DMSO, a stock solution with a concentration of 10 mM was thus prepared and this was used as an inhibitor stock solution. The assay was carried out by incubating the HDAC solution and a coumarin-labeled acetylated histone peptide solution in the presence of the test compound at 37° C. for 30 minutes (reaction volume 20 μl). To the reaction mixture was added 30 μl of trypsin, and the aminomethylcoumarin released by the enzymatic reaction was assayed using a fluorescent plate reader. In a negative control assay, no inhibitor was added to the reaction system and the same procedure was carried out.

murine HDAC6 = molecular target: T3, murine HDAC6 (Mus musculus, UniProt Q9Z2V5); assay: as above; format: biochemical; details: murine HDAC6 from transfected 293T cells; 37° C., 30 minutes
T3 construct: made in house; host or cells: 293T cells (transient transfection, anti-FLAG immunoprecipitation, FLAG peptide elution)
T3 sequence (Q9Z2V5 1-1149): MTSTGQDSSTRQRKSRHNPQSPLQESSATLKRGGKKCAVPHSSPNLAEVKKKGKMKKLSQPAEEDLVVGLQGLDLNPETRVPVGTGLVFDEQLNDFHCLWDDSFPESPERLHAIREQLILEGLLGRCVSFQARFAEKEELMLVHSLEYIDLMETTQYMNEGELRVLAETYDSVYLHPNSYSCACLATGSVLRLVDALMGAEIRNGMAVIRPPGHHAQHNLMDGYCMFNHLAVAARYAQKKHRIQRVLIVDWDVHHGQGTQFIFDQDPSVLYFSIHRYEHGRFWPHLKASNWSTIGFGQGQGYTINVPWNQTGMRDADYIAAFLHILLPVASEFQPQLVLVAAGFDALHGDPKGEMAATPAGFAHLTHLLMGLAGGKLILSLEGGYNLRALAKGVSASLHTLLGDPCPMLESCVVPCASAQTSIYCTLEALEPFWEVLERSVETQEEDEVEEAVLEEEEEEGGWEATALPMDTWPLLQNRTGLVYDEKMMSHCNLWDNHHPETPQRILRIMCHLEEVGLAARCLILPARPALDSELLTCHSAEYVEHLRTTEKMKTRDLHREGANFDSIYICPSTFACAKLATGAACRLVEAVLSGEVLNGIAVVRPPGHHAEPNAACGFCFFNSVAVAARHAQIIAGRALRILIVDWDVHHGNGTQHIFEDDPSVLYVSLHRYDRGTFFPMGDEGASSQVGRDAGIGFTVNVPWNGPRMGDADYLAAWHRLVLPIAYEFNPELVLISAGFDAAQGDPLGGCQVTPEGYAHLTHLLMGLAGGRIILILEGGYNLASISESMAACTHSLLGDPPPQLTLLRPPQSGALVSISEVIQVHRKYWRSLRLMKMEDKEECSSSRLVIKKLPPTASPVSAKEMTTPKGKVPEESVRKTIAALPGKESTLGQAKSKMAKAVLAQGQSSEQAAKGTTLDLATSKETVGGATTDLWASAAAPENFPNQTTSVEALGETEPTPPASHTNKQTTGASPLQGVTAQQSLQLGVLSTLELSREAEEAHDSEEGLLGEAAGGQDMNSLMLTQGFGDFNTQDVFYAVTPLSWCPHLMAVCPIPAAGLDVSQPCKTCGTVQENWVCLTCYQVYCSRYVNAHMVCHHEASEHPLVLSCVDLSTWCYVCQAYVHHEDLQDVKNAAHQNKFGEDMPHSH
Protocol: as §4, §5, §6, §7

T2 sequence (Q13547 whole entry): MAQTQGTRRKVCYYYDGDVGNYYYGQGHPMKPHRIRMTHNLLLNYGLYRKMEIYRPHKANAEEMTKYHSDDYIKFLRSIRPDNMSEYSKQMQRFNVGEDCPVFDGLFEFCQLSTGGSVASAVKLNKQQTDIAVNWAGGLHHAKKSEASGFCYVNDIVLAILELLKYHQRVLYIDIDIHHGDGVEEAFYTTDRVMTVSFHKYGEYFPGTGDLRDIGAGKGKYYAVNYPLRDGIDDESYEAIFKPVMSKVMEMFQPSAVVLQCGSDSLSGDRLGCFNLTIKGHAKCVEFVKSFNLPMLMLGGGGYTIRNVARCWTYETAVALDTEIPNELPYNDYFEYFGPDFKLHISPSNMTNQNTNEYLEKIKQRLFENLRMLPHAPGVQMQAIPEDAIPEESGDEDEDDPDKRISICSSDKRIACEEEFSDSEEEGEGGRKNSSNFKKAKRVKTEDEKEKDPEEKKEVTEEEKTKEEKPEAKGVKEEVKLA
T1 sequence (P56524 whole entry): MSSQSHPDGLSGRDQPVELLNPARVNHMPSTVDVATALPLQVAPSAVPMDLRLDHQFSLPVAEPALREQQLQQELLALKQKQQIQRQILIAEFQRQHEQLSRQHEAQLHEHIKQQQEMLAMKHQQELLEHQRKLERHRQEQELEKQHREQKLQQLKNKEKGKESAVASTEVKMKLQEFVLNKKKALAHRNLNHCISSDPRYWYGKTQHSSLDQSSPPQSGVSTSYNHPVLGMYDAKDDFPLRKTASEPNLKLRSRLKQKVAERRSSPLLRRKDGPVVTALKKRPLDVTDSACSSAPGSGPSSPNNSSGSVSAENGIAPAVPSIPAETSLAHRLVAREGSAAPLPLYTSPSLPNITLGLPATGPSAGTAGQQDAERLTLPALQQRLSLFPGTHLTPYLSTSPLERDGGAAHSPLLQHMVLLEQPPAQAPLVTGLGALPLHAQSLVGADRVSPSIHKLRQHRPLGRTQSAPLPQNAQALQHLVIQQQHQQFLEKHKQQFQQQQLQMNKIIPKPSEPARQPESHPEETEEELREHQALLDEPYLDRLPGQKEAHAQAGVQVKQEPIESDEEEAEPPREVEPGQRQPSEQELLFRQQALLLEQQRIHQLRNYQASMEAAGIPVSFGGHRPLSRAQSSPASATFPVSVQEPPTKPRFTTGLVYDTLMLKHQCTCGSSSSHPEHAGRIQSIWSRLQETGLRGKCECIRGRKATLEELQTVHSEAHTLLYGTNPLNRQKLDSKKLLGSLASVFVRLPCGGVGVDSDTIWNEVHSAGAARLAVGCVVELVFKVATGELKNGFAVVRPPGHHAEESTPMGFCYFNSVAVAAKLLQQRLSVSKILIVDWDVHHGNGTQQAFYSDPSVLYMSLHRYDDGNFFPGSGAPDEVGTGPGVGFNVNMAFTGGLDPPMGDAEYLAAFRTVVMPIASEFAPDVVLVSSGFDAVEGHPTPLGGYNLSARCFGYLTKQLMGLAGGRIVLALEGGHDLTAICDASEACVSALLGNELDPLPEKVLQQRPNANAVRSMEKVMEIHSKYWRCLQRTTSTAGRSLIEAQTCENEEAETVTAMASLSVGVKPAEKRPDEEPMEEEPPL
T1 sequence (O15379 whole entry, further chain): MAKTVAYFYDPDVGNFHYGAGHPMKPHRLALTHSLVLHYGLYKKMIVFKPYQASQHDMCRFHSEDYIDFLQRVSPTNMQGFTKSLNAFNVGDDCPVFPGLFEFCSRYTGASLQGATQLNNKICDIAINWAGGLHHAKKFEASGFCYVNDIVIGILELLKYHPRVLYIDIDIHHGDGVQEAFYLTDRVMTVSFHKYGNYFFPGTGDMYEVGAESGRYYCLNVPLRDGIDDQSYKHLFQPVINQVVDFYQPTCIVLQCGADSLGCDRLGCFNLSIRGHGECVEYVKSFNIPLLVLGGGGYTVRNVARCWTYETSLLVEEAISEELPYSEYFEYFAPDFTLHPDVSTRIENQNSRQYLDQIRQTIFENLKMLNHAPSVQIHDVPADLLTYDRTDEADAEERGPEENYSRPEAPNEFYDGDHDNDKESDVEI

SMILES | IC50 (human HDAC4) [nM] | p21 promoter activity EC1000 [1] [µM] | IC50 [2] [nM] | IC50 [3] [nM] | IC50 (human HDAC1) [nM] | IC50 (murine HDAC6) [nM]
COCC(=O)CCCCC[C@@H]1NC(=O)[C@H]2CCCN2C(=O)[C@H](Cc2ccccc2)NC(=O)C(C)(C)NC1=O [Ky-9, cyclo(-L-Ae9(Mmk)-Aib-L-Phe-D-Pro-)] | 28 | 0.043 | ≤ 100 | ≤ 100 | – | –
CC1(C)NC(=O)[C@H](CCCCC[S+]([O-])CC(=O)C(F)(F)F)NC(=O)[C@H]2CCCN2C(=O)[C@H](Cc2ccccc2)NC1=O (stereo partly drawn) [Ky-71, cyclo(-L-Am7(1,1,1-trifluoroacetonyl, sulfoxide)-Aib-L-Phe-D-Pro-)] | > 100000 | 3.4 | – | – | > 100000 | > 100000
CC1(C)NC(=O)[C@H](CCCCCC(=O)CBr)NC(=O)[C@H]2CCCN2C(=O)[C@H](Cc2ccccc2)NC1=O [Ky-12, cyclo(-L-Ae9(Bmk)-Aib-L-Phe-D-Pro-)] | 60 | 0.34 | – | – | 62 | 620
CC(=O)COCCCCC[C@@H]1NC(=O)[C@H]2CCCN2C(=O)[C@H](Cc2ccccc2)NC(=O)C(C)(C)NC1=O [Ky-74, cyclo(-L-Ah7(acetonyl)-Aib-L-Phe-D-Pro-)] | > 100000 | >250 | – | – | > 100000 | > 100000
CC1(C)NC(=O)[C@H](CCCCCC(=O)COCC(F)(F)F)NC(=O)[C@H]2CCCN2C(=O)[C@H](Cc2ccccc2)NC1=O [Ky-60, cyclo(-L-Ae9(Tfemk)-Aib-L-Phe-D-Pro-)] | 460 | 0.85 | – | – | 370 | > 100000
CC1(C)NC(=O)[C@H](CCCSCC(=O)C(F)(F)F)NC(=O)[C@H]2CCCN2C(=O)[C@H](Cc2ccccc2)NC1=O [Ky-27, cyclo(-L-Am5(1,1,1-trifluoroacetonyl)-Aib-L-Phe-D-Pro-)] | > 100000 | >250 | – | – | > 100000 | > 100000
CC1(C)NC(=O)[C@H](CCCCCSCc2ccccn2)NC(=O)[C@H]2CCCN2C(=O)[C@H](Cc2ccccc2)NC1=O [Ky-16, cyclo(-L-Am7(2-pyridylmethylthio ether)-Aib-L-Phe-D-Pro-)] | 11 | 0.20 | – | – | 23 | 58
